Laboratory results: PubChem BioAssay AID1963846 (Molecular Pharmacology Branch, DTP, NCI, 2024)
“And” between values parts separate entries of the source, which are not always exact repeats. Equal entries are not always repeated.

System: 454973-116-R2-J3-PDC complex spheroid viability
Experiment: Anticancer human tumor 454973-116-R2-J3-PDC patient-derived pancreatic carcinoma cell line growth inhibition [POLQ]
Conditions: for viability, T/C: stronger effect = lower value
Description: Multicellular complex tumor spheroid response to Polymerase (POL) inhibitors (novobiocin, ART-558, RP6685) in combination with a variety of drugs and investigational agents in selected tumor cell lines
The POL inhibitors (novobiocin, ART-558, and RP6685) were evaluated both individually and in combination with standard of care and investigational anticancer small molecules within a complex spheroid model of solid tumors. . Complex spheroids include a stromal component modeled by human endothelial cells (HUVEC) and fibroblasts modeled by human mesenchymal stem cells (MSCs). The concentration ranges selected for each drug and investigational agent were based upon clinically achievable concentrations if the clinical Cmax of the agent was known.
Compounds. The drugs and investigational agents: novobiocin (NSC847541), ART-558 (NSC835418), RP-6685 (NSC848927), peposertib (NSC802822), ceralasertib (NSC780249), elimusertib (NSC800525), camonsertib (NSC841442), AZD-1390 (NSC803789), olaparib (NSC753686), talazoparib (NSC767125), rucaparib (NSC756644), sotorasib (NSC818433), MRTX-1133 (NSC836407), SN-38 (NSC673596), topotecan (NSC609699), epotoside (NSC141540), doxorubicin (NSC123127), gemcitabine (NSC613327), 5-fluorouracil (NSC19893), paclitaxel (NSC125973), vemurafenib (NSC761431), MSA-2 (NSC828583), SN-011 (NSC837082), adavosertib (NSC754352), prexasertib (NSC758257), carboplatin (NSC241240) and oxaliplatin (NSC266046), were obtained from the National Cancer Institute (NCI) Developmental Therapeutics Program Chemical Repository (21). The FDA-approved anticancer drug set is available from the Developmental Therapeutics Program at https://dtp.cancer.gov/organization/dscb/obtaining/. […] The stock solutions were prepared in dimethyl sulfoxide (DMSO, Sigma-Aldrich, St. Louis, MO, cat. D2650), except for the platinum compounds which were prepared in saline (Quality Biological, Gaithersburg, MD, cat. 114-055-101), at 800-fold the tested concentration and stored at -70 degrees C prior to their use. All drugs and investigational agents were tested over a range starting from a high concentration at or near the clinical Cmax and decreasing in half-log increments. If the clinical Cmax for an agent had not been determined, the highest concentration tested was 10 microM, except for SN-38, which was tested at a high concentration of 1 microM.
Cell Culture. All cells were maintained in an incubator at 37 degrees C and 5% CO2 with 95% humidity. The PDC lines were cultured according to standard operating procedures established by the NCI PDMR (https://pdmr.cancer.gov). Table 3 of the manuscript, lists the cell lines along with the number of the three cell types plated to form the mct-spheroids and media for tumor cell growth. After thawing, all PDC lines, except 997537-175-T-J1-PDC and 415267-285-R-J2-PDC, were cultured in Matrigel-coated flasks prepared with a working solution of 1X Ham's F-12 nutrient mix, without supplementation (Thermo Fisher Scientific, cat. 11765054), 100 U/mL penicillin-streptomycin (Thermo Fisher Scientific, cat. 15140122), and 2.5% Matrigel (Corning Inc., Corning, NY, cat. 354248) for the first three passages. The two PDC lines 997537-175-T-J1-PDC and 415267-285-R-J2-PDC were cultured on uncoated flasks. The 857933-349-R-J2-PDC line was cultured in 6C/Colon 1B media containing advanced DMEM/F-12 (Thermo Fisher Scientific, cat. 12634028), 10 mM HEPES (Thermo Fisher Scientific, cat. 15630080), 1X GlutaMAX supplement (Thermo Fisher Scientific, cat. 35050061), 0.1 mg/mL primocin (InvivoGen, San Diego, CA, cat. ant-pm-2), 10% defined fetal bovine serum, heat inactivated (HyClone Laboratories Inc., Logan, UT, cat. SH30070.03HI), 50% L-WRN conditioned media (ATCC, cat. CRL-3276), 1.25 mM N-Acetyl-L-cysteine (Sigma-Aldrich, cat. A9165), 10 mM nicotinamide (Sigma-Aldrich, cat. N0636), 1X B-27 supplement (Thermo Fisher Scientific, cat. 17504044), 1X N-2 supplement (Thermo Fisher Scientific, cat. […]

[1] = curve of first compound, second compound 0.0316 µM
[2] = curve of first compound, second compound 0.1 µM
[3] = curve of first compound, second compound 0.316 µM
[4] = curve of first compound, second compound 1 µM
[5] = curve of first compound, second compound 3.16 µM
[6] = curve of first compound, second compound 10 µM
[7] = second compound 0.0316 µM, first compound 0.0316 µM
[8] = second compound 0.0316 µM, first compound 0.1 µM
[9] = second compound 0.0316 µM, first compound 0.316 µM
[10] = second compound 0.0316 µM, first compound 1 µM
[11] = second compound 0.0316 µM, first compound 3.16 µM
[12] = second compound 0.0316 µM, first compound 10 µM
[13] = second compound 0.1 µM, first compound 0.0316 µM
[14] = second compound 0.1 µM, first compound 0.1 µM
[15] = second compound 0.1 µM, first compound 0.316 µM
[16] = second compound 0.1 µM, first compound 1 µM
[17] = second compound 0.1 µM, first compound 3.16 µM
[18] = second compound 0.1 µM, first compound 10 µM
[19] = second compound 0.316 µM, first compound 0.0316 µM
[20] = second compound 0.316 µM, first compound 0.1 µM
[21] = second compound 0.316 µM, first compound 0.316 µM
[22] = second compound 0.316 µM, first compound 1 µM
[23] = second compound 0.316 µM, first compound 3.16 µM
[24] = second compound 0.316 µM, first compound 10 µM
[25] = second compound 1 µM, first compound 0.0316 µM
[26] = second compound 1 µM, first compound 0.1 µM
[27] = second compound 1 µM, first compound 0.316 µM
[28] = second compound 1 µM, first compound 1 µM
[29] = second compound 1 µM, first compound 3.16 µM
[30] = second compound 1 µM, first compound 10 µM
[31] = second compound 3.16 µM, first compound 0.0316 µM
[32] = second compound 3.16 µM, first compound 0.1 µM
[33] = second compound 3.16 µM, first compound 0.316 µM
[34] = second compound 3.16 µM, first compound 1 µM
[35] = second compound 3.16 µM, first compound 3.16 µM
[36] = second compound 3.16 µM, first compound 10 µM
[37] = second compound 10 µM, first compound 0.0316 µM
[38] = second compound 10 µM, first compound 0.1 µM
[39] = second compound 10 µM, first compound 0.316 µM
[40] = second compound 10 µM, first compound 1 µM
[41] = second compound 10 µM, first compound 3.16 µM
[42] = second compound 10 µM, first compound 10 µM
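Also: spheroids exposed to drugs for seven days before measurement.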
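For viability, T/C in this document: percent viability relative to DMSO vehicle control wells taken as 100%.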

`C#Cc1c(F)ccc2cc(O)cc(-c3ncc4c(N5CC6CCC(C5)N6)nc(OCC56CCCN5CC(F)C6)nc4c3F)c12` (stereo unspecified) + Cc1cccc(N(C)C(=O)C2C(O)CCN2c2nc(C)cc(C(F)(F)F)c2C#N)c1 showed an IC50 [1] of 66.3 nM, an IC50 [2] of 71.1 nM and an IC50 [3] of 72.8 nM. The IC50 [4] was 60.6 nM, the IC50 [5] was 47.6 nM and the IC50 [6] was less than 31.6 nM. The viability, T/C [7] was 60.8%, the viability, T/C [8] was 44.5% and the viability, T/C [9] was 32.2%. It also gave a viability, T/C [10] of 25.6%, a viability, T/C [11] of 23% and a viability, T/C [12] of 19.5%. The viability, T/C [13] was 65.3%, the viability, T/C [14] was 43.8% and the viability, T/C [15] was 32.6%. For the same compound, the viability, T/C [16] was 30.1%, the viability, T/C [17] was 26.5% and the viability, T/C [18] was 26.6%. For the same compound, the viability, T/C [19] was 66.6%, the viability, T/C [20] was 44.4% and the viability, T/C [21] was 32.8%. For the same compound, the viability, T/C [22] was 27.9%, the viability, T/C [23] was 23.2% and the viability, T/C [24] was 28.9%. It also gave a viability, T/C [25] of 56%, a viability, T/C [26] of 45.3% and a viability, T/C [27] of 31.9%. It also gave a viability, T/C [28] of 25.2%, a viability, T/C [29] of 26.5% and a viability, T/C [30] of 25.3%. For the same compound, the viability, T/C [31] was 52.9%, the viability, T/C [32] was 44.5% and the viability, T/C [33] was 35.1%. For the same compound, the viability, T/C [34] was 23.9%, the viability, T/C [35] was 28.2% and the viability, T/C [36] was 24.4%. It also gave a viability, T/C [37] of 50%, a viability, T/C [38] of 38.5% and a viability, T/C [39] of 36%. The viability, T/C [40] was 31.8%, the viability, T/C [41] was 29.1% and the viability, T/C [42] was 23.7%.
In the case of `CC[C@@]1(O)C(=O)OCc2c1cc1n(c2=O)Cc2cc3c(CN(C)C)c(O)ccc3nc2-1`, the viability, T/C (compound 0.000316 µM) is reported as 120% and 108% and 112%, the viability, T/C (compound 0.001 µM) is reported as 101% and 93.5% and 105% and the viability, T/C (compound 0.00316 µM) is reported as 97% and 95.4% and 103%. The viability, T/C (compound 0.01 µM) was 81.7% and 76.8% and 84.1%, the viability, T/C (compound 0.0316 µM) was 20% and 13.8% and 24.2% and the viability, T/C (compound 0.1 µM) was 17.1% and 10.5% and 14.8%. For the same compound, the IC50 (curve of compound) was 18.2 nM and 16.3 nM and 19.3 nM.
`CCCS(=O)(=O)Nc1ccc(F)c(C(=O)c2c[nH]c3ncc(-c4ccc(Cl)cc4)cc23)c1F` + COC1C(OC(N)=O)C(O)C(Oc2ccc3c(O)c(NC(=O)c4ccc(O)c(CC=C(C)C)c4)c(=O)oc3c2C)OC1(C)C gave an IC50 [1] of 9520 nM, an IC50 [2] greater than 10000 nM and an IC50 [3] greater than 10000 nM. For the same compound, the IC50 [4] was greater than 10000 nM, the IC50 [5] was greater than 10000 nM and the IC50 [6] was greater than 10000 nM. The viability, T/C [7] was 98.9%, the viability, T/C [8] was 106% and the viability, T/C [9] was 101%. For the same compound, the viability, T/C [10] was 114%, the viability, T/C [11] was 110% and the viability, T/C [12] was 47.5%. The viability, T/C [13] was 98.9%, the viability, T/C [14] was 118% and the viability, T/C [15] was 103%. For the same compound, the viability, T/C [16] was 113%, the viability, T/C [17] was 109% and the viability, T/C [18] was 54.8%. The viability, T/C [19] was 107%, the viability, T/C [20] was 114% and the viability, T/C [21] was 103%. For the same compound, the viability, T/C [22] was 110%, the viability, T/C [23] was 103% and the viability, T/C [24] was 57.3%. For the same compound, the viability, T/C [25] was 120%, the viability, T/C [26] was 107% and the viability, T/C [27] was 109%. The viability, T/C [28] was 117%, the viability, T/C [29] was 108% and the viability, T/C [30] was 57.3%. For the same compound, the viability, T/C [31] was 112%, the viability, T/C [32] was 109% and the viability, T/C [33] was 103%. The viability, T/C [34] was 106%, the viability, T/C [35] was 105% and the viability, T/C [36] was 62.8%. For the same compound, the viability, T/C [37] was 114%, the viability, T/C [38] was 104% and the viability, T/C [39] was 97.2%. It also gave a viability, T/C [40] of 106%, a viability, T/C [41] of 109% and a viability, T/C [42] of 65.5%.
